Test results: patent publication US7919468B2, “Compounds useful as modulators of the proteasome activity” (Centre National de la Recherche Scientifique (C.N.R.S.), priority 2005, dated 2011)
Peptide text beside a SMILES is read from it. * marks the point of attachment. Boc = CC(C)(C)OC(=O)*; NHBn = c1ccc(CN*)cc1; NHPh = c1ccc(N*)cc1; Bn = c1ccc(C*)cc1

Tests used:
[1] = target: T1, rabbit 20S proteasome, trypsin-like (T-L) activity (Oryctolagus cuniculus, UniProt G1SWK8); test: Rabbit 20S proteasome fluorescent assay, trypsin-like activity (Boc-LLR-amc); assay type: biochemical; conditions: pH 7.5, 30° C.; for inhibition at 100 µM: 100 μM compound
T1 construct: other: 100 μM compound, pH 7.5, 30° C; other: pH 7.5, 30° C
T1 sequence (G1SWK8 1-271): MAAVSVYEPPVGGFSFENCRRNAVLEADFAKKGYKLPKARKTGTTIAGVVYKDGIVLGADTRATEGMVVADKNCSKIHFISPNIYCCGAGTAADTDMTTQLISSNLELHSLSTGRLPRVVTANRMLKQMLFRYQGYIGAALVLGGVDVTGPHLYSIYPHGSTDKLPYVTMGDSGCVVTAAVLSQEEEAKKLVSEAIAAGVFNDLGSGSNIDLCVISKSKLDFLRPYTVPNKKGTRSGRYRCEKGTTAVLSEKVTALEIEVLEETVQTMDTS
Method: (§1) 20S proteasome from rabbit reticulocyte was from commercial source (Alexis Biochemicals)
(§2) Semi-automatic fluorescent assays using Suc-LLVY-amc (SEQ ID NO: 2) for chymotrypsin-like activity, Z-LLE-SNA for post-acid activity and Boc-LLR-amc for trypsin-like activity of proteasome were performed at pH 7.5 and 30° C. using BMG Fluostar microplate reader (Suc=succinyl; amc=7-amino-4-methylcoumarin; Z=benzyloxycarbonyl; NA=2-naphtylamine; Boc=tert-butoxycarbonyl). The buffers were: 20 mM Tris, 1 mM DTT, 10% glycerol, 3% (v/v) DMSO (ChT-L and PA activities); 20 mM Tris, 1 mM DTT, 10% glycerol, 3% (v/v) DMSO. Studied compounds were dissolved in DMSO prior dissolution in the buffer. Proteasome was incubated for 15 min at 30° C. in the presence of the studied compound (0.1-100 μM). A control assay in the absence of tested compounds contained DMSO at the same concentration (3%, v/v). The fluorogenic proteasome substrate was then added and the hydrolysis of the appropriate fluorescent substrate was monitored for 1 h (λexc=360, λem=465 nm for amc substrates and λexc=340, λem=405 nm for the βNA substrate). Initial rates determined in control experiments were considered to be 100% of the peptidasic activity; initial rates that were above 100% in the presence of a test compound were considered to be activations, while initial rates below 100% were considered to be inhibitions. For weak inhibitors, the percentage of inhibition at a reference concentration (100 μM) is reported. The results, expressed in % inhibition (or activation factor), were obtained by calculating the average of at least two independent experiments, the variability was less than 10%. The inhibitory activity of more efficient compounds are expressed as IC50 calculated by fitting the experimental data to the equation 1: % Inhibition=100 [I]0/(IC50+[I]0)=100 (v0−vi/v0), or equation 2: % Inhibition=100 [I]0^nH/(IC50^nH+[I]0^nH), nH is the Hill number. v0 and vi are the initial rates in the absence and in the presence of inhibitor. A Dixon plot has been used to determine the inhibition constant Ki for competitive inhibition by compound A215. The reversible character of inhibition or activation was determined by measuring the activity of treated enzyme after the inhibitor molecule has been withdrawn from the reaction medium.
(§3) Inhibition of Rabbit 20 S Proteasome (pH=7.5, 30° C.)
(§4) Activation of Rabbit 20 S Proteasome (pH=7.5, 30° C., [Compound]=100 μM)

[2] = target: T2, rabbit 20S proteasome, chymotrypsin-like (CT-L) activity (Oryctolagus cuniculus, UniProt G1T4Q9); test: Rabbit 20S proteasome fluorescent assay, chymotrypsin-like activity (Suc-LLVY-amc); assay type: biochemical; conditions: pH 7.5, 30° C.
T2 construct: other: 100 μM compound, pH 7.5, 30° C; other: pH 7.5, 30° C; CT-L Ki
T2 sequence (G1T4Q9 1-263): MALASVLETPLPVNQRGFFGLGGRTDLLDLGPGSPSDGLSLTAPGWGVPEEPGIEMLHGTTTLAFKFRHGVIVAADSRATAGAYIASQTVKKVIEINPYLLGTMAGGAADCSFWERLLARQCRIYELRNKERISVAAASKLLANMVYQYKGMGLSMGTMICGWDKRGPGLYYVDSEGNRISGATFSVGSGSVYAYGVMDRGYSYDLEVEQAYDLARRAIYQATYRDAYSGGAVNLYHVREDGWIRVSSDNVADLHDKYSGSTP
Method: as §1, §2, §3, §4

[3] = target: T3, rabbit 20S proteasome, post-acid (PA) activity (Oryctolagus cuniculus, UniProt A0A5F9DQW2); test: Rabbit 20S proteasome fluorescent assay, post-acid activity (Z-LLE-βNA); assay type: biochemical; conditions: pH 7.5, 30° C.; for PA % inhibition (at 100 μM): 100 μM compound
T3 construct: other: 100 μM compound, pH 7.5, 30° C; other: pH 7.5, 30° C
T3 sequence (A0A5F9DQW2 1-212): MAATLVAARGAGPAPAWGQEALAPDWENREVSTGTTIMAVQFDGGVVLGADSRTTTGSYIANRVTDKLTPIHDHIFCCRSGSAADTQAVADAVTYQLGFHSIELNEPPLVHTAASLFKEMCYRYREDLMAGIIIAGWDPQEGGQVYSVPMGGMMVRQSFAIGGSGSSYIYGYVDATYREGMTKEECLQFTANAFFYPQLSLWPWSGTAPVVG
Method: as §1, §2, §3, §4

[4] = system: rabbit 20S proteasome, trypsin-like (T-L) activity; test: Rabbit 20S proteasome fluorescent assay, trypsin-like activity (Boc-LLR-amc); assay type: biochemical; conditions: [Compound]=100 μM, pH 7.5, 30° C.
Method: as §1, §2, §3, §4

[5] = system: T4, rabbit 20S proteasome, chymotrypsin-like (CT-L) activity; test: Rabbit 20S proteasome fluorescent assay, chymotrypsin-like activity (Suc-LLVY-amc); assay type: biochemical; conditions: [Compound]=100 μM, pH 7.5, 30° C.
T4 construct: other: [Compound]=100 μM, pH 7.5, 30° C
Method: as §1, §2, §3, §4

[6] = patients enrolled in clinical trials (thrombocytopaenia, fatigue, peripheral neuropathy, neutropenia); cited from earlier work
[7] = system: rabbit 20S proteasome, post-acid (PA) activity; test: Rabbit 20S proteasome fluorescent assay, post-acid activity (Z-LLE-βNA); assay type: biochemical; conditions: [Compound]=100 μM, pH 7.5, 30° C.
Method: as §1, §2, §3, §4

Structure (SMILES) | T-L Activation factor [4] | CT-L Activation factor [5] | also measured
CC(C)(C)OC(=O)NCCCC[C@H](NC(=O)[C@H](Cc1ccc(OCc2ccccc2)cc1)NC(=O)OC(C)(C)C)C(=O)N[C@@H](Cc1c[nH]c2ccccc12)C(=O)Nc1ccc(O)cc1 [SP319P, N-Boc-Tyr(Bn)-Lys(Boc)-Trp-NH(4-OH)Ph] |  |  | inhibition at 100 µM [1]: 14%; inhibition at 100 µM ([2]; 100 μM compound): 36%
CC(C)(C)OC(=O)N[C@@H](Cc1ccc(O)cc1)C(=O)N[C@@H](CCCNC(=N)N)C(=O)N[C@@H](Cc1c[nH]c2ccccc12)C(=O)NCc1ccccc1 [SP325, N-Boc-Tyr-Arg-Trp-NHCH2Ph] (Boc-Tyr-Arg-Trp-NHBn) |  |  | IC50 [1]: 19 µM; IC50 [2]: 5.4 µM; IC50 [3]: 2.5 µM
C[C@H](NC(=O)[C@H](Cc1ccc(OCc2ccccc2)cc1)NC(=O)OC(C)(C)C)C(=O)N[C@@H](Cc1c[nH]c2ccccc12)C(=O)Nc1ccccc1 [SP303r2, N-Boc-Tyr(Bn)-Ala-Trp-NHPh] (Boc-Tyr(Bn)-Ala-Trp-NHPh) | 1.6 | 1.4 | 
C[C@H](NC(=O)[C@H](Cc1ccc(OCc2ccccc2)c(I)c1)NC(=O)OC(C)(C)C)C(=O)N[C@@H](Cc1c[nH]c2c(Br)cccc12)C(=O)O [A215, N-Boc-3-iodo-Tyr(Bn)-Ala-7-bromo-Trp-OH] |  |  | IC50 [1]: 14.4 µM; Ki ([2]; Dixon plot, competitive inhibition): 2 µM; IC50 [2]: 6.8 µM; IC50 [3]: 11.3 µM
CC(C)(C)OC(=O)N[C@@H](Cc1ccc(OCc2ccccc2)cc1)C(=O)N[C@@H](CCCN(C(=N)NC(=O)OCc1ccccc1)C(=O)OCc1ccccc1)C(=O)N[C@@H](Cc1c[nH]c2ccccc12)C(=O)NCc1ccccc1 [SP315C2, N-Boc-Tyr(Bn)-Arg(Z)-2-Trp-NHCH2Ph] | 1.9 | 1.2 | 
CC(C)(C)OC(=O)N[C@@H](Cc1ccc(OCc2ccccc2)cc1)C(=O)N[C@@H](CCCN(C(=N)NC(=O)OCc1ccccc1)C(=O)OCc1ccccc1)C(=O)N[C@@H](Cc1c[nH]c2ccccc12)C(=O)Nc1ccccc1 [SP310C, N-Boc-Tyr(Bn)-Arg(Z)-2-Trp-NHPh] | 1.6 | 1.7 | 
CC(C)C[C@H](NC(=O)[C@H](Cc1ccccc1)NC(=O)c1cnccn1)B(O)O [Bortezomib, bortezomib] |  |  | patients with adverse events [6]: 30%
CC(C)(C)OC(=O)N[C@@H](Cc1ccc(OCc2ccccc2)cc1)C(=O)NCC(=O)N[C@@H](Cc1c[nH]c2ccccc12)C(=O)NCc1ccccc1 [PSV11R, N-Boc-Tyr(Bn)-Gly-Trp-NHCH2Ph] (Boc-Tyr(Bn)-Gly-Trp-NHBn) | 1.7 | 1.2 | PA % inhibition (at 100 μM) [3]: 59%
CC(C)(C)OC(=O)NCCCCNC(=O)[C@H](Cc1c[nH]c2ccccc12)NC(=O)[C@H](CC(N)=O)NC(=O)[C@H](Cc1ccc(OCc2ccccc2)cc1)NC(=O)OC(C)(C)C [SP323C2, N-Boc-Tyr(Bn)-Asn-Trp-NH(CH2)4NHBoc] | 2.2 | 1.6 | PA Activation factor [7]: 1.2
C[C@H](NC(=O)[C@H](Cc1ccc(OCc2ccccc2)cc1)NC(=O)OC(C)(C)C)C(=O)N[C@@H](Cc1c[nH]c2ccccc12)C(=O)NCCCCNC(=O)OC(C)(C)C [SP305R, N-Boc-Tyr(Bn)-Ala-Trp-NH(CH2)4NHBoc] | 3.2 | 1.5 | PA Activation factor [7]: 1.2
CC(C)C[C@H](NC(=O)[C@H](Cc1ccc(OCc2ccccc2)cc1)NC(=O)OC(C)(C)C)C(=O)N[C@@H](Cc1c[nH]c2ccccc12)C(=O)Nc1ccccc1 [A424P, N-Boc-Tyr(Bn)-Leu-Trp-NHPh] (Boc-Tyr(Bn)-Leu-Trp-NHPh) | 1.9 | 1.2 | 
CC(C)(C)OC(=O)NCCCCNC(=O)[C@H](Cc1c[nH]c2ccccc12)NC(=O)[C@H](CCCN(C(=N)NC(=O)OCc1ccccc1)C(=O)OCc1ccccc1)NC(=O)[C@H](Cc1ccc(OCc2ccccc2)cc1)NC(=O)OC(C)(C)C [SP311C, N-Boc-Tyr(Bn)-Arg(Z)-2-Trp-NH(CH2)4NHBoc] | 1.9 | 1.3 | PA Activation factor [7]: 1.2
CC(C)(C)OC(=O)NCCCC[C@H](NC(=O)[C@H](Cc1ccc(OCc2ccccc2)cc1)NC(=O)OC(C)(C)C)C(=O)N[C@@H](Cc1c[nH]c2ccccc12)C(=O)NCc1ccccc1 [SP307P, N-Boc-Tyr(Bn)-Lys(Boc)-Trp-NHCH2Ph] (Boc-Tyr(Bn)-Lys(Boc)-Trp-NHBn) | 1.8 | 1.3 | 
CC(C)(C)OC(=O)NCCCCNC(=O)[C@H](Cc1c[nH]c2ccccc12)NC(=O)[C@H](CCCCNC(=O)OC(C)(C)C)NC(=O)[C@H](Cc1ccc(OCc2ccccc2)cc1)NC(=O)OC(C)(C)C [SP308P, N-Boc-Tyr(Bn)-Lys(Boc)-Trp-NH(CH2)4NHBoc] | 1.9 | 1.6 | 
CC(C)(C)OC(=O)NCCCC[C@H](NC(=O)[C@H](Cc1ccc(OCc2ccccc2)cc1)NC(=O)OC(C)(C)C)C(=O)N[C@@H](Cc1c[nH]c2ccccc12)C(=O)Nc1ccccc1 [SP306P, N-Boc-Tyr(Bn)-Lys(Boc)-Trp-NHPh] (Boc-Tyr(Bn)-Lys(Boc)-Trp-NHPh) | 1.6 | 1.2 | 
CC(C)(C)OC(=O)N[C@@H](Cc1ccc(O)cc1)C(=O)N[C@@H](CCCNC(=N)N)C(=O)N[C@@H](Cc1c[nH]c2ccccc12)C(=O)Nc1ccc(O)cc1 [SP324, N-Boc-Tyr-Arg-Trp-NH(4-OH)Ph] |  |  | IC50 [1]: 21 µM; IC50 [2]: 9 µM; IC50 [3]: 3 µM
CNC(=O)[C@H](Cc1c[nH]c2c(-c3cc(C[C@H](NC(=O)OC(C)(C)C)C(=O)N[C@@H](C)C(=O)OC)ccc3OCc3ccccc3)cccc12)NC(=O)OCc1ccccc1 [SP225F2] |  |  | inhibition at 100 µM [1]: 49%; PA % inhibition (at 100 μM) [3]: 25%
CC(C)C[C@H](NC(=O)[C@H](Cc1ccc(OCc2ccccc2)cc1)NC(=O)OC(C)(C)C)C(=O)N[C@@H](Cc1c[nH]c2ccccc12)C(=O)NCc1ccccc1 [A414P, N-Boc-Tyr(Bn)-Leu-Trp-NHCH2Ph] (Boc-Tyr(Bn)-Leu-Trp-NHBn) | 1.9 | 1.3 | 
CC(C)(C)OC(=O)N[C@@H](Cc1ccc(OCc2ccccc2)cc1)C(=O)N[C@@H](CC(N)=O)C(=O)N[C@@H](Cc1c[nH]c2ccccc12)C(=O)Nc1ccccc1 [SP314C2, N-Boc-Tyr(Bn)-Asn-Trp-NHPh] (Boc-Tyr(Bn)-Asn-Trp-NHPh) | 2.5 | 1.5 | 
CNC(=O)[C@H](Cc1c[nH]c2c(-c3cc(C[C@H](NC(=O)OC(C)(C)C)C(=O)N[C@@H](CC(C)C)C(=O)OC)ccc3OCc3ccccc3)cccc12)NC(=O)OCc1ccccc1 [SP226F1] |  |  | inhibition at 100 µM [1]: 23%
